Results published in PubChem BioAssay AID1963441 (Molecular Pharmacology Branch, DTP, NCI, 2024).

System: NCI-H1876 complex spheroid growth, % test/control
Assay: Anticancer human tumor NCI-H1876 cell line growth inhibition [Asc];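 note: compound exposure lasted 7 days starting three days after seeding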;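 for viability, T/C: 100% = DMSO vehicle control wells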
Settings: for IC50: curve of first compound; for viability, T/C: stronger effect = lower value
Method in brief: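 Complex spheroids combining tumor cells with HUVEC endothelial cells and human MSCs, at 37 degrees C, 5% CO2; agents tested alone or combined, half-log dilutions from at or near clinical Cmax, or 10 microM if Cmax unknown.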

[1] = second compound 0.0316 µM, first compound 0.0316 µM
[2] = second compound 0.0316 µM, first compound 0.1 µM
[3] = second compound 0.1 µM, first compound 0.0316 µM
[4] = second compound 0.1 µM, first compound 0.1 µM
[5] = second compound 0.316 µM, first compound 0.0316 µM
[6] = second compound 0.316 µM, first compound 0.1 µM
[7] = second compound 1 µM, first compound 0.0316 µM
[8] = second compound 1 µM, first compound 0.1 µM

`NC1CCC(NC2CC2c2ccccc2)CC1` (stereo unspecified) + CNC(C)C(=O)NC1CN(S(=O)(=O)c2cccc(S(=O)(=O)N3CCC4CCC(C(=O)NC(c5ccccc5)c5ccccc5)N4C(=O)C(NC(=O)C(C)NC)C3)c2)CCC2CCC(C(=O)NC(c3ccccc3)c3ccccc3)N2C1=O was tested, and the IC50 (second compound 0.00316 µM) was over 100 nM, the IC50 (second compound 0.01 µM) was over 100 nM and the IC50 (second compound 0.0316 µM) was over 100 nM. For the same molecule, the IC50 (second compound 0.1 µM) was over 100 nM, the IC50 (second compound 0.316 µM) was over 100 nM and the IC50 (second compound 1 µM) was over 100 nM. It also gave a viability, T/C (second compound 0.00316 µM, first compound 0.000316 µM) of 119%, a viability, T/C (second compound 0.00316 µM, first compound 0.001 µM) of 118% and a viability, T/C (second compound 0.00316 µM, first compound 0.00316 µM) of 132%. For the same molecule, the viability, T/C (second compound 0.00316 µM, first compound 0.01 µM) was 133%, the viability, T/C (second compound 0.00316 µM, first compound 0.0316 µM) was 131% and the viability, T/C (second compound 0.00316 µM, first compound 0.1 µM) was 119%. The viability, T/C (second compound 0.01 µM, first compound 0.000316 µM) was 119%, the viability, T/C (second compound 0.01 µM, first compound 0.001 µM) was 121% and the viability, T/C (second compound 0.01 µM, first compound 0.00316 µM) was 121%. For the same molecule, the viability, T/C (second compound 0.01 µM, first compound 0.01 µM) was 124%, the viability, T/C (second compound 0.01 µM, first compound 0.0316 µM) was 128% and the viability, T/C (second compound 0.01 µM, first compound 0.1 µM) was 140%. It also gave a viability, T/C (second compound 0.0316 µM, first compound 0.000316 µM) of 116%, a viability, T/C (second compound 0.0316 µM, first compound 0.001 µM) of 118% and a viability, T/C (second compound 0.0316 µM, first compound 0.00316 µM) of 138%. The viability, T/C (second compound 0.0316 µM, first compound 0.01 µM) was 125%, the viability, T/C [1] was 127% and the viability, T/C [2] was 127%. It also gave a viability, T/C (second compound 0.1 µM, first compound 0.000316 µM) of 121%, a viability, T/C (second compound 0.1 µM, first compound 0.001 µM) of 128% and a viability, T/C (second compound 0.1 µM, first compound 0.00316 µM) of 128%. The viability, T/C (second compound 0.1 µM, first compound 0.01 µM) was 128%, the viability, T/C [3] was 128% and the viability, T/C [4] was 121%. The viability, T/C (second compound 0.316 µM, first compound 0.000316 µM) was 131%, the viability, T/C (second compound 0.316 µM, first compound 0.001 µM) was 113% and the viability, T/C (second compound 0.316 µM, first compound 0.00316 µM) was 118%. For the same molecule, the viability, T/C (second compound 0.316 µM, first compound 0.01 µM) was 130%, the viability, T/C [5] was 143% and the viability, T/C [6] was 124%. The viability, T/C (second compound 1 µM, first compound 0.000316 µM) was 122%, the viability, T/C (second compound 1 µM, first compound 0.001 µM) was 129% and the viability, T/C (second compound 1 µM, first compound 0.00316 µM) was 136%. For the same molecule, the viability, T/C (second compound 1 µM, first compound 0.01 µM) was 131%, the viability, T/C [7] was 137% and the viability, T/C [8] was 143%.

In the case of `NC(=O)C(=Cn1cnc(-c2cc(C(F)(F)F)cc(C(F)(F)F)c2)n1)c1cncnc1` + Cc1c(S(C)(=O)=O)c(-c2cc(F)cc(N3CCN(c4ccc(NS(=O)(=O)c5ccc(NC(CCN6CCC(C(=O)OCCCP(=O)(O)O)CC6)CSc6ccccc6)c(S(=O)(=O)C(F)(F)F)c5)cc4)CC3)c2)c(-c2ccc(Cl)cc2)n1C(C)C, the IC50 (second compound 0.0316 µM) is reported as over 300 nM, the IC50 (second compound 0.1 µM) is reported as over 300 nM and the IC50 (second compound 0.316 µM) is reported as 273 nM. It also gave an IC50 (second compound 1 µM) of 223 nM, an IC50 (second compound 3.16 µM) of 163 nM and an IC50 (second compound 10 µM) of 149 nM. For the same molecule, the viability, T/C (second compound 0.0316 µM, first compound 0.000949 µM) was 105%, the viability, T/C (second compound 0.0316 µM, first compound 0.003 µM) was 102% and the viability, T/C (second compound 0.0316 µM, first compound 0.00949 µM) was 94.4%. It also gave a viability, T/C (second compound 0.0316 µM, first compound 0.03 µM) of 97.8%, a viability, T/C (second compound 0.0316 µM, first compound 0.0949 µM) of 105% and a viability, T/C (second compound 0.0316 µM, first compound 0.3 µM) of 55.1%. It also gave a viability, T/C (second compound 0.1 µM, first compound 0.000949 µM) of 99.3%, a viability, T/C (second compound 0.1 µM, first compound 0.003 µM) of 112% and a viability, T/C (second compound 0.1 µM, first compound 0.00949 µM) of 113%. For the same molecule, the viability, T/C (second compound 0.1 µM, first compound 0.03 µM) was 106%, the viability, T/C (second compound 0.1 µM, first compound 0.0949 µM) was 101% and the viability, T/C (second compound 0.1 µM, first compound 0.3 µM) was 52.5%. For the same molecule, the viability, T/C (second compound 0.316 µM, first compound 0.000949 µM) was 102%, the viability, T/C (second compound 0.316 µM, first compound 0.003 µM) was 107% and the viability, T/C (second compound 0.316 µM, first compound 0.00949 µM) was 91.3%. It also gave a viability, T/C (second compound 0.316 µM, first compound 0.03 µM) of 97.1%, a viability, T/C (second compound 0.316 µM, first compound 0.0949 µM) of 96.3% and a viability, T/C (second compound 0.316 µM, first compound 0.3 µM) of 45.8%. For the same molecule, the viability, T/C (second compound 1 µM, first compound 0.000949 µM) was 99.6%, the viability, T/C (second compound 1 µM, first compound 0.003 µM) was 96.9% and the viability, T/C (second compound 1 µM, first compound 0.00949 µM) was 89.7%. The viability, T/C (second compound 1 µM, first compound 0.03 µM) was 96%, the viability, T/C (second compound 1 µM, first compound 0.0949 µM) was 88.7% and the viability, T/C (second compound 1 µM, first compound 0.3 µM) was 36.6%. It also gave a viability, T/C (second compound 3.16 µM, first compound 0.000949 µM) of 101%, a viability, T/C (second compound 3.16 µM, first compound 0.003 µM) of 92.5% and a viability, T/C (second compound 3.16 µM, first compound 0.00949 µM) of 95.5%. For the same molecule, the viability, T/C (second compound 3.16 µM, first compound 0.03 µM) was 92.9%, the viability, T/C (second compound 3.16 µM, first compound 0.0949 µM) was 69.4% and the viability, T/C (second compound 3.16 µM, first compound 0.3 µM) was 27.9%. It also gave a viability, T/C (second compound 10 µM, first compound 0.000949 µM) of 109%, a viability, T/C (second compound 10 µM, first compound 0.003 µM) of 99.9% and a viability, T/C (second compound 10 µM, first compound 0.00949 µM) of 90%. For the same molecule, the viability, T/C (second compound 10 µM, first compound 0.03 µM) was 92.5%, the viability, T/C (second compound 10 µM, first compound 0.0949 µM) was 66.9% and the viability, T/C (second compound 10 µM, first compound 0.3 µM) was 23.1%.

In the case of `C=CC(=O)N1CCN(c2nc(=O)n(-c3c(C)ccnc3C(C)C)c3nc(-c4c(O)cccc4F)c(F)cc23)C(C)C1` (stereo unspecified) + Cc1c(S(C)(=O)=O)c(-c2cc(F)cc(N3CCN(c4ccc(NS(=O)(=O)c5ccc(NC(CCN6CCC(C(=O)OCCCP(=O)(O)O)CC6)CSc6ccccc6)c(S(=O)(=O)C(F)(F)F)c5)cc4)CC3)c2)c(-c2ccc(Cl)cc2)n1C(C)C, the IC50 (second compound 0.0316 µM) is reported as over 10000 nM, the IC50 (second compound 0.1 µM) is reported as over 10000 nM and the IC50 (second compound 0.316 µM) is reported as over 10000 nM. It also gave an IC50 (second compound 1 µM) of over 10000 nM, an IC50 (second compound 3.16 µM) of over 10000 nM and an IC50 (second compound 10 µM) of over 10000 nM. It also gave a viability, T/C [1] of 91%, a viability, T/C [2] of 89.5% and a viability, T/C (second compound 0.0316 µM, first compound 0.316 µM) of 107%. The viability, T/C (second compound 0.0316 µM, first compound 1 µM) was 95.2%, the viability, T/C (second compound 0.0316 µM, first compound 3.16 µM) was 103% and the viability, T/C (second compound 0.0316 µM, first compound 10 µM) was 109%. The viability, T/C [3] was 85.7%, the viability, T/C [4] was 99.6% and the viability, T/C (second compound 0.1 µM, first compound 0.316 µM) was 101%. It also gave a viability, T/C (second compound 0.1 µM, first compound 1 µM) of 106%, a viability, T/C (second compound 0.1 µM, first compound 3.16 µM) of 108% and a viability, T/C (second compound 0.1 µM, first compound 10 µM) of 107%. It also gave a viability, T/C [5] of 91.1%, a viability, T/C [6] of 114% and a viability, T/C (second compound 0.316 µM, first compound 0.316 µM) of 97.6%. It also gave a viability, T/C (second compound 0.316 µM, first compound 1 µM) of 103%, a viability, T/C (second compound 0.316 µM, first compound 3.16 µM) of 109% and a viability, T/C (second compound 0.316 µM, first compound 10 µM) of 104%. The viability, T/C [7] was 105%, the viability, T/C [8] was 99.4% and the viability, T/C (second compound 1 µM, first compound 0.316 µM) was 111%. For the same molecule, the viability, T/C (second compound 1 µM, first compound 1 µM) was 98.6%, the viability, T/C (second compound 1 µM, first compound 3.16 µM) was 110% and the viability, T/C (second compound 1 µM, first compound 10 µM) was 114%. The viability, T/C (second compound 3.16 µM, first compound 0.0316 µM) was 96.4%, the viability, T/C (second compound 3.16 µM, first compound 0.1 µM) was 95.3% and the viability, T/C (second compound 3.16 µM, first compound 0.316 µM) was 102%. The viability, T/C (second compound 3.16 µM, first compound 1 µM) was 97.8%, the viability, T/C (second compound 3.16 µM, first compound 3.16 µM) was 114% and the viability, T/C (second compound 3.16 µM, first compound 10 µM) was 96.7%. The viability, T/C (second compound 10 µM, first compound 0.0316 µM) was 99.2%, the viability, T/C (second compound 10 µM, first compound 0.1 µM) was 96.5% and the viability, T/C (second compound 10 µM, first compound 0.316 µM) was 99.6%. For the same molecule, the viability, T/C (second compound 10 µM, first compound 1 µM) was 116%, the viability, T/C (second compound 10 µM, first compound 3.16 µM) was 106% and the viability, T/C (second compound 10 µM, first compound 10 µM) was 95.1%.
